# Results published in ChEMBL document CHEMBL2062434, “Isolation and structural elucidation of cyclic tetrapeptides from Onychocola sclerotica” (J Nat Prod, 2012).
# Where a SMILES comes first, the peptide text is derived from it. [ ]: non-standard residue; d: D form. NMeF = CN[C@@H](Cc1ccccc1)C(=O)O
# Legend:
# [1] = Inhibition of human voltage-dependent L-type calcium channel subunit alpha1C/alpha2delta/beta2a expressed in C1-6-37-3 cells assessed as inhibition of K+-induced calcium influx incubated for 30 mins prior to K+-induction by Fluo-4-AM based FLIPR assay; assay type: cell-based
# [2] = Cytotoxicity against human Fa2N-4 cells after 24 hrs by MTT assay; assay type: cell-based; settings: Fa2N-4, 24 h
Compound,IC50 [1],IC50 [2]
CC[C@H](C)[C@@H]1NC(=O)[C@H](Cc2ccccc2)N(C)C(=O)[C@H]([C@@H](C)CC)NC(=O)[C@H](Cc2ccccc2)N(C)C1=O (cyclo(I[NMeF]I[NMeF])),5 µM,> 20 µM
CC[C@H](C)[C@@H]1NC(=O)[C@H](Cc2ccccc2)N(C)C(=O)[C@H](C(C)C)NC(=O)[C@H](Cc2ccccc2)N(C)C1=O (cyclo(I[NMeF]V[NMeF])),7.1 µM,> 20 µM
CC(C)[C@@H]1NC(=O)[C@H](Cc2ccccc2)N(C)C(=O)[C@H](C(C)C)NC(=O)[C@H](Cc2ccccc2)N(C)C1=O (cyclo([NMeF]V[NMeF]V)),6.2 µM,> 20 µM
COc1ccc([C@@H]2Sc3ccccc3N(CCN(C)C)C(=O)[C@@H]2OC(C)=O)cc1 [DILTIAZEM],2.2 µM,

# Now those with a lower IC50 [1], led by results:
IC50 [1],Compound,IC50 [2]
0.9 µM,COc1ccc(CCN(C)CCCC(C#N)(c2ccc(OC)c(OC)c2)C(C)C)cc1OC (centres undefined),
0.003 µM,CCOC(=O)C1=C(C)NC(C)=C(C(=O)OC)C1c1cccc([N+](=O)[O-])c1 (centres undefined) [NITRENDIPINE],
